pIC50: −log10 of the molar value.
Molecular target: C5aR (Homo sapiens (Human), UniProt P21730)
Experiment: Chemotaxis assay using U937 cells (C5aR mediated migration)
Assay type: cell-based
Conditions: read-out: Mig IC50
Outline: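 Migration toward 0.03 nM C5a, mixed with varying compound in the lower chamber (HBSS with 1% FBS), was measured over 1.5 h at 37° C through 5 μm filters. Upper chamber held 100,000 U937 cells treated overnight with 0.5 mM cAMP; migrated cells quantified by counts or CyQuant for IC50, SDF-1α as specificity control.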

Sequence of C5aR (P21730 whole entry): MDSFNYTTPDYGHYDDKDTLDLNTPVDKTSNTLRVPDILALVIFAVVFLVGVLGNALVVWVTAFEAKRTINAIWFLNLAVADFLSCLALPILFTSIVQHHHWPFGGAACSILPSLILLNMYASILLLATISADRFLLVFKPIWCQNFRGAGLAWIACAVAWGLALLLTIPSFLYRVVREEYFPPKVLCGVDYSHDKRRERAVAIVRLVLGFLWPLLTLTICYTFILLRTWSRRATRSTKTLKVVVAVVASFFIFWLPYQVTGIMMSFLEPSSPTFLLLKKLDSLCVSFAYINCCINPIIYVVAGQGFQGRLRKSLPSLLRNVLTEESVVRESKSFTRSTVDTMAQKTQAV

pIC50 | Structure (SMILES)
6.30 to 7.30 | Cc1cccc(CCC(C)C)c1-n1nc2c(c1-c1ccc(NC(N)=O)cc1)CN(C(=O)OC(C)(C)C)CC2 [Example 1.414]
≥ 8.30 | Cc1cccc(OCC(C)C)c1-n1nc2c(c1-c1ccc(NC(N)=O)cc1)CN(c1cccc(C(F)(F)F)c1)CC2 [Example 1.412]
7.30 to 8.30 | CCc1cccc(CC)c1-n1nc2c(c1-c1ccc(NC(N)=O)cc1)CN(Cc1cc(Cl)ccc1OC(C)C)CC2 [Example 1.284]
7.30 to 8.30 | Cc1cccc(OCC(C)C)c1-n1nc2c(c1-c1ccc(NC(N)=O)c(F)c1)CN(c1nc(Cl)ns1)CC2 [Example 1.246]
6.30 to 7.30 | Cc1cccc(OCC(C)C)c1-n1nc2c(c1-c1ccc(NC(N)=O)cc1)CN(C(=O)c1cccc(C(C)(C)C)c1)CC2 [Example 1.433]
7.30 to 8.30 | Cc1cccc(OCC(C)C)c1-n1nc2c(c1-c1ccc(NC(N)=O)c(F)c1)CN(c1cc(F)cnc1F)CC2 [Example 1.251]
≥ 8.30 | Cc1cccc(OCC(C)C)c1-n1nc2c(c1-c1ccc(NC(N)=O)cc1)CN(C(C)c1cccc(C(F)(F)F)c1)CC2 (centres unmarked) [Example 1.319]
≥ 8.30 | Cc1cccc(OCC(C)C)c1-n1nc2c(c1-c1ccc(NC(N)=O)c(F)c1)CN([C@@H](C)C(C)C)CC2 [Example 1.257]
< 6.30 | COc1cccc(C)c1-n1nc2c(c1-c1ccc(NC(C)C)cc1)CN(c1ccccc1C)CC2 [Example 1.489]
7.30 to 8.30 | Cc1cccc(OCC(C)C)c1-n1nc2c(c1-c1ccc(NC(N)=O)cc1)CN(c1ncc(Cl)cc1Cl)CC2 [Example 1.258]
6.30 to 7.30 | CCN1CCc2nn(-c3c(C)cccc3OCC(C)C)c(-c3ccc(NC(N)=O)c(F)c3)c2C1 [Example 1.265]
< 6.30 | COc1cccc(C)c1-n1nc2c(c1-c1ccc(NC(C)=O)cc1)CN(c1ccccc1C(C)C)CC2 [Example 1.483]
7.30 to 8.30 | Cc1cc(C(F)(F)F)ccc1CN1CCc2nn(-c3c(C)cccc3OCC(C)C)c(-c3ccc(NC(N)=O)cc3)c2C1 [Example 1.384]
≥ 8.30 | Cc1cccc(OCC(C)C)c1-n1nc2c(c1-c1ccc(NC(N)=O)cc1)CN(c1ncc(F)cc1C(F)(F)F)CC2 [Example 1.322]
7.30 to 8.30 | Cc1cccc(OCC(C)C)c1-n1nc2c(c1-c1ccc(NC(N)=O)cc1)CN(c1ccc(F)cc1C(C)C)CC2 [Example 1.419]
6.30 to 7.30 | Cc1cccc(OCC(C)C)c1-n1nc2c(c1-c1ccc(NC(N)=O)cc1)CN(C(=O)CC(C)(C)C)CC2 [Example 1.435]
6.30 to 7.30 | Cc1cccc(OCC(C)C)c1-n1nc2c(c1-c1ccc(NC(N)=O)cc1)CN(c1cc(C(C)(C)O)ccc1F)CC2 [Example 1.363]
≥ 8.30 | Cc1cccc(OCC(C)C)c1-n1nc2c(c1-c1ccc(NC(N)=O)cc1)CN(Cc1c(Cl)cc(C(F)(F)F)cc1C(F)(F)F)CC2 [Example 1.332]
< 6.30 | COc1cccc(C)c1-n1nc2c(c1-c1ccc(NC(=O)NC(C)(C)C)cc1)CN(c1ccccc1C)CC2 [Example 1.488]
< 6.30 | Cc1cccc(OCC(C)C)c1-n1nc2c(c1-c1ccc(NC(N)=O)cc1)CN(Cc1cc(Cl)ccc1Cl)CC2(C)C [Example 1.261]
≥ 8.30 | Cc1cccc(OCC(C)C)c1-n1nc2c(c1-c1ccc(NC(N)=O)c(Cl)c1)CN(c1ncc(C(F)(F)F)cc1F)CC2 [Example 1.275]
≥ 8.30 | Cc1cccc(OCC(C)C)c1-n1nc2c(c1-c1ccc(NC(N)=O)cc1)CN(Cc1ccc(F)cc1F)CC2 [Example 1.316]
6.30 to 7.30 | COc1cccc(C)c1-n1nc2c(c1-c1ccc(NC(N)=O)cc1)CN(c1ccccc1C)CC2 [Example 1.484]
6.30 to 7.30 | COc1cccc(C)c1-n1nc2c(c1-c1ccc(NC(N)=O)nc1)CN(c1ccccc1C(C)C)CC2 [Example 1.447]
≥ 8.30 | Cc1cccc(OCC(C)C)c1-n1nc2c(c1-c1ccc(NC(N)=O)cc1)CN(Cc1ccc(C(F)(F)F)cc1C(F)(F)F)CC2 [Example 1.357]
≥ 8.30 | Cc1cccc(C)c1-n1nc2c(c1-c1cc(F)c(NC(N)=O)cc1F)CN(c1ccccc1Cl)CC2 [Example 1.103]
7.30 to 8.30 | Cc1cccc(OCC(C)C)c1-n1nc2c(c1-c1ccc(NC(N)=O)cc1)CN(c1ccc(Cl)c(C(F)(F)F)c1)CC2 [Example 1.379]
7.30 to 8.30 | Cc1cccc(OCC(C)C)c1-n1nc2c(c1-c1ccc(NC(N)=O)cc1)CN(C(C)(C)c1ccccc1)CC2 [Example 1.134]
7.30 to 8.30 | Cc1ccc(C(C)(C)C)cc1N1CCc2nn(-c3c(C)cccc3OCC(C)C)c(-c3ccc(C(N)=O)cc3)c2C1 [Example 1.445]
6.30 to 7.30 | Cc1cccc(CC(C)C)c1-n1nc2c(c1-c1ccc(NC(N)=O)cc1)CN(C(=O)OC(C)(C)C)CC2 [Example 1.415]

Further lines, the compound ahead of its results:

Structure (SMILES) | pIC50
Cc1cccc(OCC(C)C)c1-n1nc2c(c1-c1ccc(NC(N)=O)cc1F)CN(c1ncc(C(F)(F)F)cc1F)CC2 [Example 1.270] | ≥ 8.30
COc1cc(NC(N)=O)c(F)cc1-c1c2c(nn1-c1c(C)cccc1C)CCN(c1ncc(Cl)cc1Cl)C2 [Example 1.123] | ≥ 8.30
NC(=O)Nc1cc(F)c(-c2c3c(nn2-c2ccccc2OC(F)(F)F)CCN(c2ncc(Cl)cc2Cl)C3)cc1F [Example 1.167] | ≥ 8.30
Cc1cccc(C)c1-n1nc2c(c1-c1cc(F)c(NC(N)=O)cc1F)CN(c1ccc(F)cc1Cl)CC2 [Example 1.106] | ≥ 8.30
CCc1cccc(CC)c1-n1nc2c(c1-c1cc(F)c(NC(N)=O)cc1F)CN(Cc1ccc(F)cc1C(F)(F)F)CC2 [Example 1.044] | ≥ 8.30
Cc1cccc(C)c1-n1nc2c(c1-c1cc(F)c(NC(N)=O)cc1F)CN(CC(C)(C)O)CC2 [Example 1.086] | < 6.30
Cc1cccc(OCC(C)C)c1-n1nc2c(c1-c1cc(F)c(NC(N)=O)cc1Cl)CN(c1ncc(C(F)(F)F)cc1F)CC2 [Example 1.217] | ≥ 8.30
Cc1cccc(C)c1-n1nc2c(c1-c1cc(F)c(NC(N)=O)cc1F)CN(c1ncc(C3CC3)cc1Cl)CC2 [Example 1.124] | ≥ 8.30
CCc1cccc(CC)c1-n1nc2c(c1-c1cc(F)c(NC(N)=O)cc1F)CN(Cc1cnn(CC)c1)CC2 [Example 1.072] | 6.30 to 7.30
CCc1cccc(CC)c1-n1nc2c(c1-c1cc(F)c(NC(N)=O)cc1F)CN(C(C)(C)CC)CC2 [Example 1.212] | ≥ 8.30
Cc1cccc(OCC(C)C)c1-n1nc2c(c1-c1cc(F)c(NC(N)=O)cc1F)CN(c1ncccn1)CC2 [Example 1.160] | ≥ 8.30
Cc1cccc(OCC(C)C)c1-n1nc2c(c1-c1ccc(NC(N)=O)c(F)c1)CN(Cc1nccn1C)CC2 [Example 1.233] | < 6.30
Cc1cccc(OCC(C)C)c1-n1nc2c(c1-c1cc(F)c(NC(N)=O)cc1F)CN(c1ncccc1Cl)CC2 [Example 1.170] | ≥ 8.30
CCc1cccc(CC)c1-n1nc2c(c1-c1cc(F)c(NC(N)=O)cc1F)CN(C(CC)c1ccccc1F)CC2 (centres unmarked) [Example 1.150] | ≥ 8.30
Cc1cccc(OCC(C)C)c1-n1nc2c(c1-c1cc(F)c(NC(N)=O)cc1F)CN(c1ncc(C3CC3)cc1F)CC2 [Example 1.172] | ≥ 8.30
Cc1cccc(C)c1-n1nc2c(c1-c1cc(F)c(NC(N)=O)cc1F)CN(c1ccc(C3CC3)cc1Cl)CC2 [Example 1.093] | ≥ 8.30
Cc1cccc(C)c1-n1nc2c(c1-c1cc(F)c(NC(N)=O)cc1F)CN(c1ncc(C(F)(F)F)cc1F)CC2 [Example 1.174] | ≥ 8.30
Cc1cccc(C)c1-n1nc2c(c1-c1cc(F)c(O)cc1F)CN(c1ncc(Cl)cc1Cl)CC2 [Example 1.112] | ≥ 8.30

Structure (SMILES) | pIC50
Cc1cccc(OCC(C)C)c1-n1nc2c(c1-c1cc(F)c(NC(N)=O)cc1F)CN(c1ncc(Cl)cc1F)CC2 [Example 1.173] | ≥ 8.30
CCc1cccc(CC)c1-n1nc2c(c1-c1cc(F)c(NC(N)=O)cc1F)CN(Cc1cc(Cl)ccc1Cl)C(C)(C)C2 [Example 1.023] | ≥ 8.30
CCc1cccc(CC)c1-n1nc2c(c1-c1cc(F)c(NC(N)=O)cc1F)CN(CC1(C)COC1)C(C)(C)C2 [Example 1.010] | 7.30 to 8.30
Cc1cccc(OCC(C)C)c1-n1nc2c(c1-c1cc(F)c(NC(N)=O)cc1F)CN(c1ccc(Cl)cn1)CC2 [Example 1.182] | ≥ 8.30
CCc1cccc(CC)c1-n1nc2c(c1-c1cc(F)c(NC(N)=O)cc1F)CN(Cc1ccc(C(C)(C)C)cc1)CC2 [Example 1.054] | ≥ 8.30
CCc1cccc(CC)c1-n1nc2c(c1-c1ccc(NC(N)=O)c(F)c1)CN(Cc1ccccc1C(F)(F)F)CC2 [Example 1.244] | ≥ 8.30
CCc1cccc(CC)c1-n1nc2c(c1-c1cc(F)c(NC(N)=O)cc1F)CN(Cc1ccc(C(F)(F)F)cc1C)C(C)(C)C2 [Example 1.047] | ≥ 8.30
Cc1cccc(C)c1-n1nc2c(c1-c1cc(F)c(NC(N)=O)cc1F)CN(c1ncc(Cl)cc1Cl)CC2 [Example 1.180] | ≥ 8.30
CCc1cccc(CC)c1-n1nc2c(c1-c1cc(F)c(NC(N)=O)cc1F)CN(Cc1ccc(C(F)(F)F)cc1C(F)(F)F)[C@@H](C)C2 [Example 1.016] | ≥ 8.30
Cc1cccc(C)c1-n1nc2c(c1-c1cc(F)c(NC(N)=O)cc1F)CN(c1ncc(C(C)C)cn1)CC2 [Example 1.153] | 7.30 to 8.30
CCc1cccc(CC)c1-n1nc2c(c1-c1ccc(NC(N)=O)c(F)c1)CN(CC(C)(C)C)CC2 [Example 1.253] | ≥ 8.30
Cc1cccc(OCC(C)C)c1-n1nc2c(c1-c1cc(F)c(NC(N)=O)cc1F)CN(C(C)(C)C#N)CC2 [Example 1.209] | 6.30 to 7.30
CCc1cccc(CC)c1-n1nc2c(c1-c1cc(F)c(NC(N)=O)cc1OC)CN(Cc1ccc(C(F)(F)F)cc1C(F)(F)F)CC2 [Example 1.042] | ≥ 8.30
CCc1cccc(CC)c1-n1nc2c(c1-c1cc(F)c(NC(N)=O)cc1F)CN(C(C)(C)C)CC2 [Example 1.204] | 7.30 to 8.30
Cc1cccc(OCC(C)C)c1-n1nc2c(c1-c1ccc(NC(N)=O)c(F)c1)CN(CC1CCCC1)CC2 [Example 1.272] | ≥ 8.30
Cc1cccc(C)c1-n1nc2c(c1-c1cc(F)c(N)cc1F)CN(c1ncc(Cl)cc1Cl)CC2 [Example 1.120] | < 6.30
CCC(c1ccccc1)N1CCc2nn(-c3c(C)cccc3OCC(C)C)c(-c3cc(F)c(NC(N)=O)cc3F)c2C1 (centres unmarked) [Example 1.145] | ≥ 8.30
